The source of these data is PMC9556331, “Structural basis for directional chitin biosynthesis” (Nature, 2022).

As usually defined, the Ki is the dissociation constant of the complex between target and ligand, obtained from inhibition or displacement. A word on the stoichiometry N: it is a count of units in the complex or per binding partner.

The target in data set [1] is T1, chitin synthase PsChs1 (Phytophthora sojae, UniProt G4Z2L3).
T1 construct: gene CHS1; full-length PsChs1 with C-terminal tandem twin Strep tag and Flag tag; residues 40-860 built, 743-758 disordered; homodimer
The data set can be described thus: cryo-EM structure ([…] Å) plus enzyme inhibition kinetics (competitive Ki). It counts as biochemical.

Data set [2] has as its target T1, chitin synthase PsChs1. The data set can be described thus: cryo-EM structure ([…] Å). It counts as binding.
Data set [3] deals with the molecule itself. Nature of the data set: AUC; purified recombinant PsChs1 in the presence of detergent; molar mass of the main peak compared with the 107 kDa monomer.
Data set [4] concerns the molecule itself. Nature of the data set: cryo-EM structure; purified protein at about 5 mg/ml in digitonin buffer; apo or with UDP-GlcNAc, UDP/(GlcNAc)3, UDP or NikZ; C2 symmetry imposed.

For the molecule `C[C@@H]([C@H](N)C(=O)N[C@H](C(=O)O)[C@H]1O[C@@H](n2ccc(=O)[nH]c2=O)[C@H](O)[C@@H]1O)[C@H](O)c1ccc(O)cn1` [NikZ, nikkomycin Z], the Ki on chitin synthase PsChs1 [1] came to 151 ± 4.8 µM. On to `O=c1ccn([C@@H]2O[C@H](COP(=O)(O)OP(=O)(O)O)[C@@H](O)[C@H]2O)c(=O)[nH]1` [UDP], for which, on chitin synthase PsChs1 [2], the “cryo-EM structure (3.1 Å)” value is given as “The UDP-bound dimeric PsChs1 structure represents its nascent chitin-released state”.

B1: Phytophthora sojae chitin synthase PsChs1 (enzyme)
chain: MSGAPPPSSGFAPRSYGQQPLSHAPRSSMMSVEYDGIPLPPPSIRSCGSQQYVTSYIPTGAAFPPSSVQDMISSMKSYASATDLVRTYSEIPSVEEALSTLDRAAAALNARRYRDALKLYLEGGYAMANVAERQANPKICNLLTSKGFETLNWCARLCDWIEGRIKEKHPRPGVHKVGIPVSNWDEDWVGPFMDEEEARRMWYTPVYCPHPIDFSNLGYRLRCVETGRRPRLMICITMYNEGPQQLKATLKKLANNLAYLKEQMPGDEKSLTGAFAGDDVWQNVLVCIVADGREQVHPKTLDYLEAIGLYDEDLLTINSAGIGAQCHLFEHTLQLSVNGKCLLPIQTVFALKENKASKLDSHHWYFNAFAEQIQPEYTAVMDVGTMLTKSALYHLLFAFERNHQIGGACGQLTVDNPFENLSNWVISAQHFEYKISNILDKSLESCFGFISVLPGAFSAYRYEAIRGAPLDAYFQTLNIELDVLGPFIGNMYLAEDRILSFEVVARKNCNWTMHYVKDAVARTDVPHDLVGLISQRKRWLNGAFFATLFSIWNWGRIYSESKHTFVRKMAFLVFYVYHLLYTAFGFFLPANLYLALFFIVFQGFQQNRLEFIDTSEYSQTVLDCAVYIYNFSYLFGLLMLIIIGLGNNPKHMKLTYYFVGAVFGLMMMLSSLVGAGIFFSTPATVHSIVVSILTVGVYFIASALHGEVHHIFMTFTHYTALIPSFVNIFTIYSFCNLQDLSWGTKGLHDDPLLAASLDETEKGDFKDVIAKRRALEELRREEKERVENRKKNFEAFRTNVLLTWAFSNLIFALFVVYFASSSTYMPVLYIFVASLNTCRLLGSIGHWVYIHTEGLRGRVIDKSECGNGTGRYPQNSYVQLEEHYAALAEDQRTYASGRTNASVRTVNDVSSAA
notes: also called native PsChs1; wild-type PsChs1
As for B1, the “stoichiometry N” value in data set [3] stood at 2.

B2: PsChs1 E495A (used for the UDP-GlcNAc-bound structure) (enzyme)
chain: MSGAPPPSSGFAPRSYGQQPLSHAPRSSMMSVEYDGIPLPPPSIRSCGSQQYVTSYIPTGAAFPPSSVQDMISSMKSYASATDLVRTYSEIPSVEEALSTLDRAAAALNARRYRDALKLYLEGGYAMANVAERQANPKICNLLTSKGFETLNWCARLCDWIEGRIKEKHPRPGVHKVGIPVSNWDEDWVGPFMDEEEARRMWYTPVYCPHPIDFSNLGYRLRCVETGRRPRLMICITMYNEGPQQLKATLKKLANNLAYLKEQMPGDEKSLTGAFAGDDVWQNVLVCIVADGREQVHPKTLDYLEAIGLYDEDLLTINSAGIGAQCHLFEHTLQLSVNGKCLLPIQTVFALKENKASKLDSHHWYFNAFAEQIQPEYTAVMDVGTMLTKSALYHLLFAFERNHQIGGACGQLTVDNPFENLSNWVISAQHFEYKISNILDKSLESCFGFISVLPGAFSAYRYEAIRGAPLDAYFQTLNIELDVLGPFIGNMYLAADRILSFEVVARKNCNWTMHYVKDAVARTDVPHDLVGLISQRKRWLNGAFFATLFSIWNWGRIYSESKHTFVRKMAFLVFYVYHLLYTAFGFFLPANLYLALFFIVFQGFQQNRLEFIDTSEYSQTVLDCAVYIYNFSYLFGLLMLIIIGLGNNPKHMKLTYYFVGAVFGLMMMLSSLVGAGIFFSTPATVHSIVVSILTVGVYFIASALHGEVHHIFMTFTHYTALIPSFVNIFTIYSFCNLQDLSWGTKGLHDDPLLAASLDETEKGDFKDVIAKRRALEELRREEKERVENRKKNFEAFRTNVLLTWAFSNLIFALFVVYFASSSTYMPVLYIFVASLNTCRLLGSIGHWVYIHTEGLRGRVIDKSECGNGTGRYPQNSYVQLEEHYAALAEDQRTYASGRTNASVRTVNDVSSAA
notes: source: HEK293F, transiently transfected, purified as the native PsChs1 (Strep-TactinXT, anti-Flag M2 resin, SEC)
For the molecule B2, in data set [4], the “stoichiometry N” value was 2.
